A word on the IC50: it is the concentration that inhibits the measured activity by half. A higher IC50 goes with lower potency.

Format in all cases: cell-based
In assay [1] the target is T1, human TLR8 (Homo sapiens, UniProt Q9NR97).
T1 construct: host or cells: HEK-Blue cells (HEK293-derived reporter line)
T1 sequence (Q9NR97 27-1041): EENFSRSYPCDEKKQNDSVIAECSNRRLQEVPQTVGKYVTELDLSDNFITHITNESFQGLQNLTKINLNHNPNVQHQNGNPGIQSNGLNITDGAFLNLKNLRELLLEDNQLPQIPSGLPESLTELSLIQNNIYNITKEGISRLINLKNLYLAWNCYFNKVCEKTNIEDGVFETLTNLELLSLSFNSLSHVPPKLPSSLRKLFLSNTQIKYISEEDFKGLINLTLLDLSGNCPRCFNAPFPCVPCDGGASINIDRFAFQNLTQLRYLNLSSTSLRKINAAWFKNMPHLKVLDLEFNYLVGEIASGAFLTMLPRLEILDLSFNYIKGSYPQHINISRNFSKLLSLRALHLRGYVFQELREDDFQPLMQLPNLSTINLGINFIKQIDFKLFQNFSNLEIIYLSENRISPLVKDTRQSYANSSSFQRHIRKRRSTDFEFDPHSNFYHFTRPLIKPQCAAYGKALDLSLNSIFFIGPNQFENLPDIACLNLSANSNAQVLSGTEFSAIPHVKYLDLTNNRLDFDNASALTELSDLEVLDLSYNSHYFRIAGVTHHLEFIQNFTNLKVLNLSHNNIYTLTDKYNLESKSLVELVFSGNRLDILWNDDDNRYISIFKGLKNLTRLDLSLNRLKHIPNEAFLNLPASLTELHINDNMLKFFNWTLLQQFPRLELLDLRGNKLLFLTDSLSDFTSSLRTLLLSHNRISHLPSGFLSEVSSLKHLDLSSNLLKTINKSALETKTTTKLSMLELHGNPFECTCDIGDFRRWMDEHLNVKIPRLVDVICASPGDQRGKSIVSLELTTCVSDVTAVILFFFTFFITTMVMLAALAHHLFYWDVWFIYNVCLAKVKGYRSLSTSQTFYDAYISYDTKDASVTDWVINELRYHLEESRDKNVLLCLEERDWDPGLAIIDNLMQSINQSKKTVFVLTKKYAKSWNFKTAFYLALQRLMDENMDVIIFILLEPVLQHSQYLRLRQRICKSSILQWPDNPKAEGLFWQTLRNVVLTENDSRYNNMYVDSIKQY
Description: TLR8 inhibition reporter assay (HEK-Blue cells, SEAP reporter, R848 stimulation). The settings on record: HEK-Blue cells overexpressing human TLR8, SEAP reporter, R848 15.9 μM. Put shortly: (§1)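 Agonists (final): TLR7 gardiquimod 7.5 μM; TLR8 R848 15.9 μM; TLR9 ODN2006 5 nM. HEK-Blue reporter cells, 30 min RT compound pre-incubation, 0.05 nM–50 μM dose range, 22 h at 37 °C, colorimetric SEAP detection medium. % inhibition relative to agonist+DMSO and known-inhibitor wells.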
(Reporter assays use an easily measured gene product as a stand-in for the process of interest.)

The target of assay [2] is T2, human TLR9 (Homo sapiens, UniProt Q9NR96).
T2 construct: host or cells: HEK-Blue cells (HEK293-derived reporter line)
T2 sequence (Q9NR96 26-1032): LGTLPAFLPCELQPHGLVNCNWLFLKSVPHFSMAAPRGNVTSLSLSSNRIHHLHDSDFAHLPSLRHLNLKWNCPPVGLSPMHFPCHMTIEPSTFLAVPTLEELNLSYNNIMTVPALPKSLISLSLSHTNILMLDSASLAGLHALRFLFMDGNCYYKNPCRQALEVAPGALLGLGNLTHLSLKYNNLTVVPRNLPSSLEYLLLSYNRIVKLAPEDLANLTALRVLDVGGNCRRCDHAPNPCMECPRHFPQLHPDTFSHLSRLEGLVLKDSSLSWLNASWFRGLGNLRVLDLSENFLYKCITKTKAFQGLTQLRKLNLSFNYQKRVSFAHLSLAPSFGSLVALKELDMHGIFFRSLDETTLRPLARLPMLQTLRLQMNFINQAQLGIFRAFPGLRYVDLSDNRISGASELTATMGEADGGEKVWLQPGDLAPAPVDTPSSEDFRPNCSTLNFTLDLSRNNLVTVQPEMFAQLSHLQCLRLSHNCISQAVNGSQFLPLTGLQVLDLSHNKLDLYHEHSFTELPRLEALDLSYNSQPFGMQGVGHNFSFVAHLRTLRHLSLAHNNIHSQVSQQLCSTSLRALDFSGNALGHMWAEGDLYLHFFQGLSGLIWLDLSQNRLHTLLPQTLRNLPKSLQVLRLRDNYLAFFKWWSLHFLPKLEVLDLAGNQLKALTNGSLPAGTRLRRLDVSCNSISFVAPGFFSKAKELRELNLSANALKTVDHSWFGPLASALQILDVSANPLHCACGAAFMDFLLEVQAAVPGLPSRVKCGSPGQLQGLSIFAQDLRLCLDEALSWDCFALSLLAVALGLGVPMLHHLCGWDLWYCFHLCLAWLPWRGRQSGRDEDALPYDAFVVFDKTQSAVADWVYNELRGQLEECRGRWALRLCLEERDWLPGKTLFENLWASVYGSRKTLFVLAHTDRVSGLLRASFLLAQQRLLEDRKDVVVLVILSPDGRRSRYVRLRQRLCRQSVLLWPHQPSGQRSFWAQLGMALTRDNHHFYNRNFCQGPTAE
In words: TLR9 inhibition reporter assay (HEK-Blue cells, SEAP reporter, ODN2006 stimulation). The note with it: HEK-Blue cells overexpressing human TLR9, SEAP reporter, ODN2006 5 nM. The method, boiled down: as §1

For assay [3], the target named is T3, human TLR7 (Homo sapiens, UniProt Q9NYK1).
T3 construct: host or cells: HEK-Blue cells (HEK293-derived reporter line)
T3 sequence (Q9NYK1 27-1049): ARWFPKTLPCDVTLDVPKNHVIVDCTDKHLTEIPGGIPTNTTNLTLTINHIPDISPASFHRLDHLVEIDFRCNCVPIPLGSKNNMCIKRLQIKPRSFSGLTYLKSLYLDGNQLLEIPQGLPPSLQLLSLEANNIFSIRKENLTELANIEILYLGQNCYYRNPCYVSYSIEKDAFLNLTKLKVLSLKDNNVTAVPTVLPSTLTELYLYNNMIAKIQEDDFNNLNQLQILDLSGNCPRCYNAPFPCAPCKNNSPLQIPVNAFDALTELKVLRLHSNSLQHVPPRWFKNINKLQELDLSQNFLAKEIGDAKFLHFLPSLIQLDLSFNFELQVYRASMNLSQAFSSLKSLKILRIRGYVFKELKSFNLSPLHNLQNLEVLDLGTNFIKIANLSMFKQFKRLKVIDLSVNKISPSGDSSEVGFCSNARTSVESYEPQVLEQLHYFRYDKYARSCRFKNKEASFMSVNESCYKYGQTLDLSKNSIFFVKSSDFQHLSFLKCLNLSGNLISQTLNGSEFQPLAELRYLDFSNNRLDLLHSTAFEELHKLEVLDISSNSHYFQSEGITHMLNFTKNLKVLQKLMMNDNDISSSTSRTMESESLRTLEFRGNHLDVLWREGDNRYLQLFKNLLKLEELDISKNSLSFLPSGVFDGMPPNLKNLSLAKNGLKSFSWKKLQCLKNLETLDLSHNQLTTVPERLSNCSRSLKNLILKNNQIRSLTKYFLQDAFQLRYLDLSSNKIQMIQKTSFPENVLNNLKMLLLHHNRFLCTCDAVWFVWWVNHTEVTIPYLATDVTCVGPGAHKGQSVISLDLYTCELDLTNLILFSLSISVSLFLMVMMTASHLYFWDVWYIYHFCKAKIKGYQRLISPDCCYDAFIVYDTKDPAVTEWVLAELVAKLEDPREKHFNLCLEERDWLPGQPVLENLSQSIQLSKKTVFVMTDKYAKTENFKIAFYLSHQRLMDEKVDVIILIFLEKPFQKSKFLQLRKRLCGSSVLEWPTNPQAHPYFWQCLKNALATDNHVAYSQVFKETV
Description: TLR7 inhibition reporter assay (HEK-Blue cells, SEAP reporter, gardiquimod stimulation). The note with it: HEK-Blue cells overexpressing human TLR7, SEAP reporter, gardiquimod 7.5 μM. Put shortly: as §1

On to `CC(C)c1c(-c2cc(Cl)c3ncccc3c2)[nH]c2ccc(C3CCN(C(=O)CN(C)C)CC3)cc12` [Example 512, 1-(4-(2-(8-chloroquinolin-6-yl)-3-isopropyl-1H-indol-5-yl)piperidin-1-yl)-2-(dimethylamino)ethan-1-one], for which the figures for the concentration for half-maximal inhibition (IC50) in assay [1], in assay [2] and in assay [3] were below 100 nM, 1000 to 50000 nM and below 100 nM, respectively.

For the compound `Cc1cc(-c2[nH]c3ccc(C4CCN(Cc5ncn(C)n5)CC4)cc3c2C(C)C)cn2nnnc12` [Example 885, 6-(3-isopropyl-5-(1-((1-methyl-1H-1,2,4-triazol-3-yl)methyl)piperidin-4-yl)-1H-indol-2-yl)-8-methyltetrazolo[1,5-a]pyridine], the IC50 is below 100 nM in assay [1], 1000 to 50000 nM in assay [2] and below 100 nM in assay [3].

For `Cc1cc(-c2[nH]c3ccc(C4CCN(C(=O)CN(C)C)CC4)cc3c2C(C)C)nc2scnc12` [Example 543, 2-(dimethylamino)-1-(4-(3-isopropyl-2-(7-methylthiazolo[5,4-b]pyridin-5-yl)-1H-indol-5-yl)piperidin-1-yl)ethan-1-one], the figures for the IC50 in assay [1], in assay [2] and in assay [3] were below 100 nM, 1000 to 50000 nM and below 100 nM, respectively.

Regarding `Cc1cn2cc(-c3[nH]c4ccc(C5CCN(CC(=O)N(C)C)CC5)cc4c3CC(F)F)ccc2n1` [Example 416, 2-(4-(3-(2,2-difluoroethyl)-2-(2-methylimidazo[1,2-a]pyridin-6-yl)-1H-indol-5-yl)piperidin-1-yl)-N,N-dimethylacetamide], the values for the IC50 in assay [1], in assay [2] and in assay [3] were above 3130 nM, below 100 nM and below 100 nM, respectively.

With `Cc1cn2cc(-c3[nH]c4ccc(C5CCN(C(=O)CN(C)C)CC5)cc4c3C(C)C)ccc2n1` [Example 523, 2-(dimethylamino)-1-(4-(3-isopropyl-2-(2-methylimidazo [1,2-a]pyridin-6-yl)-1H-indol-5-yl)piperidin-1-yl)ethan-1-one], the half-inhibitory concentration (IC50) in assay [1] is 100 to 1000 nM; in assay [2], 100 to 1000 nM; in assay [3], below 100 nM.

For `Cc1nc2cc(-c3[nH]c4ccc(C5CCN(C6COC6)CC5)cc4c3C(C)C)ccn2n1` [Example 728, 7-(3-isopropyl-5-(1-(oxetan-3-yl)piperidin-4-yl)-1H-indol-2-yl)-2-methyl-[1,2,4]triazolo[1,5-a]pyridine], the half-maximal inhibitory concentration (IC50) in assay [1] was 1000 to 50000 nM; in assay [2], 1000 to 50000 nM; in assay [3], below 100 nM.

In the case of `CC(=O)N1CCC(C(=O)N2CCC(c3ccc4[nH]c(-c5ccnc6[nH]ncc56)c(C(C)C)c4c3)CC2)CC1` [Example 646, 1-(4-(4-(3-isopropyl-2-(1H-pyrazolo[3,4-b]pyridin-4-yl)-1H-indol-5-yl)piperidine-1-carbonyl)piperidin-1-yl)ethan-1-one], the results for the concentration for half-maximal inhibition (IC50) in assay [1], in assay [2] and in assay [3] were below 100 nM, 1000 to 50000 nM and 100 to 1000 nM, respectively.

For `CCc1c[nH]c2nccc(-c3[nH]c4ccc(C5CCNCC5)cc4c3C(C)C)c12` [Example 222, 3-ethyl-4-(3-isopropyl-5-(piperidin-4-yl)-1H-indol-2-yl)-1H-pyrrolo[2,3-b]pyridine], the concentration for half-maximal inhibition (IC50) in assay [1] is below 100 nM; in assay [2], 1000 to 50000 nM; in assay [3], 100 to 1000 nM.

As to `CNC(=O)CN1CCC(c2ccc3[nH]c(-c4cc(C)c5nccnc5c4)c(C(C)C)c3c2)CC1` [Example 394, 2-(4-(3-isopropyl-2-(8-methylquinoxalin-6-yl)-1H-indol-5-yl)piperidin-1-yl)-N-methylacetamide], the values for the concentration for half-maximal inhibition (IC50) in assay [1], in assay [2] and in assay [3] were 100 to 1000 nM, 1000 to 50000 nM and below 100 nM, respectively.

Take `CC(=O)N1CCC(N2CCC(c3ccc4[nH]c(-c5ccnc6[nH]ncc56)c(C(C)C)c4c3)CC2)CC1` [Example 823, 1-(4-(3-isopropyl-2-(1H-pyrazolo[3,4-b]pyridin-4-yl)-1H-indol-5-yl)-[1,4′-bipiperidin]-1′-yl)ethan-1-one]: the IC50 in assay [1] was below 100 nM; in assay [2], 1000 to 50000 nM; in assay [3], below 100 nM.

Turning to `CC(C)c1c(-c2ccnc3[nH]ncc23)[nH]c2ccc(C3CCN(C(=O)c4cscn4)CC3)cc12` [Example 611, (4-(3-isopropyl-2-(1H-pyrazolo[3,4-b]pyridin-4-yl)-1H-indol-5-yl)piperidin-1-yl)(thiazol-4-yl)methanone], the IC50 in assay [1] was 100 to 1000 nM; in assay [2], 1000 to 50000 nM; in assay [3] it was below 100 nM.

With `Cc1c(-c2[nH]c3ccc(C4CCN(C(=O)CCN5CCOCC5)CC4)cc3c2C(C)C)cn2nnnc2c1C` [Example 619, 1-(4-(2-(7,8-dimethyltetrazolo[1,5-a]pyridin-6-yl)-3-isopropyl-1H-indol-5-yl)piperidin-1-yl)-3-morpholinopropan-1-one], the IC50 in assay [1] was below 100 nM; in assay [2], 1000 to 50000 nM; in assay [3] it was below 100 nM.

The values are drawn from US11739098B2 (BRISTOL-MYERS SQUIBB COMPANY, priority 2017, dated 2023).
